# Results published in patent US20220204918A1, “CELL CULTURE MEDIA COMPRISING KETO ACIDS” (MERCK PATENT GMBH, priority 2019, published 2022).
# Where a name gives a salt, the structure may show the parent alone.
# Columns and labels:
# [1] = Solubility in water at 25° C. (saturated solution, residual mass after infrared drying); type: physicochemical; details: for Solubility 25° C. in g/kg (corresponding keto acid) / maximum solubilities obtained in water / Solubility (amino acid): water; for maximum solubilities obtained in water: separate experiments; for Solubility 25° C. in g/kg (corresponding keto acid) / Solubility (amino acid): 25° C.
# Procedure: After sedimentation, the solution was dried using infrared (120° C., 120 min) and the residual mass was determined in g/kg.
# [2] = FB culture with other keto acids replacing their amino acid in the feed; type: cell-based
# From the text: Other keto acids have been tested as replacement for their respective amino acids in FB experiments. A very similar behavior compared to Ile and Leu was observed when Val was replaced by keto Val in the feed (FIG. 17). Indeed, similar VCD and titer were observed compared to the positive control whereas the feed depleted in Val leads to a drastic decrease in the VCD, as well as a very low titer after day 7. […] Due to the structural similarity to keto Ile and keto Leu, the effect of keto Val on overall feed concentration and feed stability is similar to the other branched chain keto acids. 6× higher solubility when compared to Val was confirmed in water.
# For phenylalanine (Phe) and its respective keto acid phenylpyruvate (FIG. 18), the amination reaction to build Phe in cell culture seemed to be slower than the amination reactions occurring for branched chain keto acids. […] Following that result, a condition where 2× the molar equivalent of Phe was used as a concentration of phenylpyruvate in the feed.
# CHOK1GS cell line [3] = test: Serial passaging and batch experiment in Leu/Ile depleted Cellvento 4CHO with keto acids; type: cell-based; details: for initial keto acid concentration detected in form of the amino acid: day 3
# From the text: To confirm that this is applicable in CHO systems, keto Leu or keto Ile were used as replacement for Leu and Ile respectively in a cell culture medium (Cellvento® 4CHO). A Leu/Ile depleted version of the formulation was produced and equimolar concentrations of keto Leu vs Leu and keto Ile vs Ile were used (FIG. 15). Cell growth and viability of a CHOK1GS cell line were monitored over several weeks in serial passaging experiments to make sure that the growth is not due to residual amounts of Leu or Ile. A batch experiment with a seeding density of 0.2 million cells/mL was designed and IgG production was measured over time. The production of the amino acids was followed with time using amino acids quantification in the spent medium.
# [4] = Feed stability: precipitation during storage; type: physicochemical
# Procedure: In addition, when using keto Leu instead of Leu in the feed, the precipitation of the feed was delayed. To observe precipitation, the 50 mL falcon tubes were turned back to see possible sedimentation on the bottom of the tube and pictures were taken. […] A complete inhibition of precipitation was not observed at RT exposed to light but the precipitation was delayed in the keto Leu condition. Whereas precipitation was observed starting at D49 for the control condition, initial precipitation appeared at D70 for the keto Leu condition.
# [5] = tested on: CHODG44 cell line expressing an IgG1; test: Fed-batch with keto Leu, CHODG44; type: cell-based
# [6] = tested on: CHOK1GS suspension cell line expressing a human IgG1; test: 17-days fed-batch process with keto acid replacing amino acid in the feed; type: cell-based; details: for amount of NH3 produced compared to control: 17-days fed-batch
# Procedure: For cell culture experiments, a CHOK1GS suspension cell line expressing a human IgG1, was used. Cells were cultivated in quadruplicate in Cellvento 4CHO medium (Merck Darmstadt, Germany) using 50 mL spin tubes with a starting culture volume of 30 mL and a seeding density of 2×10^5 cells/mL. Incubation was carried out at 37° C., 5% CO2, 80% humidity and an agitation of 320 rpm. The keto acids were added in the Feed (4Feed depleted in Ile and leu) instead of their respective amino acids. The pH of all the feeds was neutral (pH 7.0+/−0.2). The positive control contained the normal amino acids whereas the negative control contained the feed depleted in the respective amino acid and without addition of keto acid. Feeding was carried out at days 3, 5, 7, 10 and 14 at the following v/v ratios (3, 3, 6, 3 and 3%). Glucose was quantified daily and adjusted to 6 g/L using a 400 g/L glucose solution. The experiment was repeated at least 3 times.
# The viable cell density (VCD) and viability were evaluated with a Vi-CELL XR (Beckman Coulter, Fullerton, Calif.). Metabolite concentrations were monitored using a Cedex Bio HT (Roche Diagnostics, Mannheim, Germany) based on spectrophotometric and turbidometric methods. Quantification of amino acids was carried out via UPLC after derivatization with the AccQ⋅TagUltra® reagent kit. Derivatization, chromatography and data analysis were carried out following the supplier recommendations (Waters, Milford, Mass.).
# The productivity per cell per day was calculated daily by dividing the titer by the corrected integral VCD to take into account the dilution resulting from feeding. The overall specific productivity was determined by calculating the slope from the linear regression between titer and corrected integral VCD.
# [7] = Feed stability: NH3 formed during 3 months storage (AUC of NH3 concentration); type: physicochemical; details: for less ammonia produced compared to control: 4° C.; for reduced ammonia level compared to control: RT
# Procedure: Finally, the amount of ammonium ions formed during storage of the feed containing keto acids at 4° C. or RT was lower when compared to the feed containing the normal amino acids. To be able to evaluate the formation of the NH3 over the entire period of the stability study, the AUC of the NH3 concentration was calculated for the timeframe of 3 months to compare the conditions.
# [8] = Feed stability: change in color, AUC of absorbance 300-600 nm over 90 days; type: physicochemical
# Procedure: The stability of a feed containing Ile and Leu (Cellvento® 4Feed) was compared to the stability of the same feed depleted in Ile/Leu and with supplementation of either keto Leu or keto Ile. The feeds were prepared according to the standard protocol. The final pH was 7.0+/−0.2 and the feeds were stored at 4° C. or RT protected or exposed to light. The change in color of the formulations were monitored during 90 days by measuring the absorbance in the range from 300 nm to 600 nm (intervals of 5 nm). Conditions were compared by calculating the area under the curve (AUC) over time (between D0 and D90) of the baseline corrected area under the curve of the absorbance scan (300 nm-600 nm).
# physchem = details: for solubility at 10 min: 25 °C, pH 7, aqueous with cosolvent or surfactant or cyclodextrin, thermodynamic from solid
# Procedure: Increasing amounts of the keto acids and salts thereof were added to a cell culture feed formulation (Cellvento® 4Feed, MilliporeSigma) depleted in Ile and Leu. Similarly, increasing amount of Ile and Leu were added to the same feed formulation as a control. The total concentration of this feed formulation was 125 g/L and the pH was 7.0+/−0.2. In small scale experiments, after each addition of either the amino acid or the keto acid, the feed was agitated for 10 mins and turbidity was measured. The experiments were performed at room temperature (25° C.).
# CHOK1GS cell line [9] = test: Batch experiments with higher seeding densities and different Leu/keto Leu ratios; type: cell-based
# Procedure: In a similar way, batch experiments with higher cell seeding densities were performed in media containing different ratios of Leu/keto Leu to understand which ratios are preferable when starting with higher cell densities (FIG. 16). The analytic used was the same as described above.
# Finally, batch experiments with higher cell densities were performed to determine whether keto Leu is readily available when starting with high seeding densities or if a minimum concentration of free leucine has to be present to support growth and productivity in these conditions. For this experiment, a CHOK1GS cell line was seeded at 0.3, 0.6 or 1.10^6 cells/mL in a medium containing 0, 25, 50, 75, or 100% of keto Leu, the rest being added in form of Leucine.
# [10] = equivalent molar concentration (1×)
# [11] = batch, seeding density 0.2 million cells/mL
# [12] = Val replaced by keto Val in the feed
structure (smiles),measurement,setting,value
"O=C([O-])C(=O)Cc1ccccc1.[Na+] [phenylpyruvate, Phenylpyruvic acid sodium salt]",Solubility 25° C. in g/kg (corresponding keto acid),[1],72 g/kg
same,Phe in the spent medium vs control,[2]; 2× the molar equivalent of Phe,very similar amount
same,VCD vs control,[2]; 2× the molar equivalent of Phe,restore
same,titer vs control,[2]; 2× the molar equivalent of Phe,restore
same,Phe in the supernatant compared to negative control,[2]; [10],more Phe
same,final reduction of titer,[2]; [10],20%
same,VCD vs control,"[2]; equivalent molar concentration (1×), after day 5",significant lower VCD
"CC(C)CC(=O)C(=O)[O-].[Na+] [keto Leu, 4-Methyl-2-oxopentanoic acid sodium salt]",growth / performance vs control,CHOK1GS cell line [3]; [11],comparable
same,initial keto acid concentration detected in form of the amino acid,CHOK1GS cell line [3]; spent medium,34%
same,amount and color intensity of precipitate vs control,"[4]; RT light exposed, days after D70",lower
same,precipitation,[4]; RT light protected,no precipitation
same,IgG titer compared to control,[5],slightly lower
same,Leu concentration in spent media vs control,[5],nearly similar
same,VCD compared to control,[5],lower VCD
same,overall specific productivity,[5],slightly increased
same,amount of NH3 produced compared to control,[6],significantly reduced
same,concentration of Leu in the spent medium vs positive control,[6]; Leu replaced with keto Leu,slightly lower
same,less ammonia produced compared to control,[7]; light exposed,19%
same,less ammonia produced compared to control,[7]; light protected,10%
same,reduced ammonia level compared to control,[7]; light exposed,5%
same,reduced ammonia level compared to control,[7]; light protected,15%
same,decrease of AUC (change in color) vs control,"[8]; 4° C., light exposed",8%
same,decrease of AUC (change in color) vs control,"[8]; 4° C., light protected",27%
same,decrease of AUC (change in color) vs control,"[8]; RT, light exposed",37%
same,decrease of AUC (change in color) vs control,"[8]; RT, light protected",31%
same,maximum solubilities obtained in water,[1],313.7 g/kg
same,Solubility 25° C. in g/kg (corresponding keto acid),[1],313.7 g/kg
same,times more soluble than the amino acid,physchem,2.6 times
same,solubility at 10 min,physchem,240 mM
same,keto Leu share at which highest VCD was observed,CHOK1GS cell line [9]; seeding 0.6.10^6 and 0.3.10^6 cells/mL,50%
same,titer between ratios keto Leu/Leu,CHOK1GS cell line [9]; seeding at 0.3 and 1.10^6 cells/mL,no significant difference
same,IgG concentration between ratios keto Leu/Leu,CHOK1GS cell line [9]; seeding at 0.6.10^6 cells/mL,slight trend
same,keto Leu exchange at which maximum VCD was observed,CHOK1GS cell line [9]; seeding density 1.10^6 cells/mL,100%
"CC(C)C[C@H](N)C(=O)O [Leucine, reference compound]",maximum solubilities obtained in water,[1],22.1 g/kg
same,Solubility (amino acid),[1],22.1 g/kg
same,solubility at 10 min,physchem,~90 mM
CSCCC(=O)C(=O)O [Alpha keto gamma methylthiobutyric acid sodium salt],Solubility 25° C. in g/kg (corresponding keto acid),[1],>500 g/kg
"CCC(C)C(=O)C(=O)[O-].[Na+] (stereo not drawn) [keto Ile, 3-Methyl-2-oxopentanoic acid sodium salt]",IgG vs control,CHOK1GS cell line [3]; [11],slightly impaired
same,growth / performance vs control,CHOK1GS cell line [3]; [11],slightly impaired
same,initial keto acid concentration detected in form of the amino acid,CHOK1GS cell line [3]; spent medium,21%
same,initial keto Ile concentration detected in the form of allo-Ile,"CHOK1GS cell line [3]; spent medium, up to day 10",35%
same,amount of NH3 produced compared to control,[6],significantly reduced
same,allo-Ile peak in spent medium,[6]; Ile replaced with keto Ile,increased with time
same,concentration of Ile in the spent medium vs positive control,[6]; Ile replaced with keto Ile,significantly lower
same,less ammonia produced compared to control,[7]; light exposed,24%
same,less ammonia produced compared to control,[7]; light protected,21%
same,reduced ammonia level compared to control,[7]; light exposed,25%
same,reduced ammonia level compared to control,[7]; light protected,28%
same,decrease of AUC (change in color) vs control,"[8]; 4° C., light exposed",68%
same,decrease of AUC (change in color) vs control,"[8]; 4° C., light protected",33%
same,decrease of AUC (change in color) vs control,"[8]; RT, light exposed",38%
same,decrease of AUC (change in color) vs control,"[8]; RT, light protected",no decrease
same,Solubility 25° C. in g/kg (corresponding keto acid),[1],480 g/kg
same,times more soluble than the amino acid,physchem,at least 6 times
same,solubility at 10 min,physchem,≥ 635 mM
"N[C@@H](Cc1ccccc1)C(=O)O [Phenylalanine, reference compound]",Solubility (amino acid),[1],26.8 g/kg
"CC(C)C(=O)C(=O)[O-].[Na+] [keto Val, α-Ketoisovaleric acid sodium salt]",higher solubility when compared to Val,[1]; in water,6 ×
same,Solubility 25° C. in g/kg (corresponding keto acid),[1],362 g/kg
same,NH3 concentration,[2]; [12],lower
same,VCD compared to positive control,[2]; [12],similar
same,titer compared to positive control,[2]; [12],similar
"CSCC[C@H](N)C(=O)O [Methionine, reference compound]",Solubility (amino acid),[1],52.9 g/kg
"CC(C)C[C@H](N)C(=O)[O-].[Na+] [Leu sodium salt, reference compound]",maximum solubilities obtained in water,[1],86.0 g/kg
"CC(C)[C@H](N)C(=O)O [Valine, reference compound]",Solubility (amino acid),[1],58.5 g/kg
"CC[C@H](C)[C@H](N)C(=O)O [Isoleucine, reference compound]",Solubility (amino acid),[1],32.4 g/kg
same,solubility at 10 min,physchem,~105 mM
